In patent US9963463B2, “Urea-substituted indanes as P38 map kinase inhibitors” (TORRENT PHARMACEUTICALS LIMITED, priority 2014, dated 2018):

Each compound was assayed against T1, purified recombinant human p38 alpha MAPK (Homo sapiens, UniProt Q16539) (assay: Inhibition of p38 alpha MAPK activity, TR-FRET kinase assay). Conditions: Concentration 100 nM; read-out: P38α Inhibition.
T1 construct: purchased Millipore, USA
Assay type: biochemical
Experimental: Inhibition of p38 Alpha MAPK Activity: Time-Resolved Fluorescence Resonance Energy Transfer Kinase Standard Assay (TR-FRET Assay)
Compounds of present invention at various concentrations were premixed with DMSO. The experiment was initiated by mixing 0.5%-1.0% DMSO as vehicle/compounds with purified recombinant human p38 alpha MAPK (Millipore, USA) in the wells and 15 min incubation at room temperature. Thereafter, 30 nM of Biotinylated GST-ATF2 (Activation transcription Factor2) and 100 μM of ATP were added in to the wells containing reaction mixture, followed by reincubation for 60 minutes at RT. Reaction was terminated by addition of 10 mM of EDTA and detection reagent containing anti-phosphotheronine ATF2 antibody (PerkinElmer®, USA) labeled with europium chelate and APC (Allophycocyanin) labeled streptavidin, into the reaction mixture which was further incubated for 60 minutes at room temperature. The degree of phosphorylation of the substrate (GST-ATF2) was measured using Envision multimode reader (PerkinElmer®). Percentage inhibition of p38 kinase activity was calculated by determining ratio of specific europium 665 nm energy transfer signal to reference 615 nm signal.

T1 sequence (Q16539 whole entry): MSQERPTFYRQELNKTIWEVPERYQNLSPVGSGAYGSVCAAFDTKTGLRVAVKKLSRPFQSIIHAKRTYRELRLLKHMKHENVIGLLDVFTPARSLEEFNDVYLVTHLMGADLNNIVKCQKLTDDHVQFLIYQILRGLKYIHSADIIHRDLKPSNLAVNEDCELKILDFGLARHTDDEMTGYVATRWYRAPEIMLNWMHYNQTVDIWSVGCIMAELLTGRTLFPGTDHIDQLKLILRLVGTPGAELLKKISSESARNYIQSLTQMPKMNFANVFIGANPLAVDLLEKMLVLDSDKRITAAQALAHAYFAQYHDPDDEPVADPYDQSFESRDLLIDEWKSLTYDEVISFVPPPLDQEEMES

`COc1c(NC(=O)Nc2ccc(OCCN3CCn4c(nnc4-c4ccc(SCCO)cc4)C3)c3c2CCC3)cc(C(C)(C)C)cc1NS(C)(=O)=O` [Compound 47, N-(5-tert-butyl-3-{[(7-{2-[3-{4-[(2-hydroxyethyl)sulfanyl]phenyl}-5,6-dihydro[1,2,4]triazolo[4,3-a]pyrazin-7(8H)-yl]ethoxy}-2,3-dihydro-1H-inden-4-yl)carbamoyl]amino}-2-methoxyphenyl)methanesulfonamide] and `COc1c(NC(=O)Nc2ccc(OCCN3CCn4c(nnc4-c4cccc(O)c4)C3)c3c2CCC3)cc(C(C)(C)C)cc1NS(C)(=O)=O` [Compound 46, N-(5-tert-butyl-3-{[(7-{2-[3-(3-hydroxyphenyl)-5,6-dihydro[1,2,4]triazolo[4,3-a]pyrazin-7(8H)-yl]ethoxy}-2,3-dihydro-1H-inden-4-yl)carbamoyl]amino}-2-methoxyphenyl)methanesulfonamide] fall in the same range of inhibition at 0.1 µM: 60 to 80% for the first, 60 to 80% for the second.

Same assay, conditions: Concentration 1 μM; read-out: P38α Inhibition

`Cc1ccc(-n2nc(C(C)(C)C)cc2NC(=O)Nc2ccc(OCCN3CCN(CC4CCCC4)C(=O)C3)c3c2CCC3)cc1` [Compound 21, 1-[3-tert-butyl-1-(4-methylphenyl)-1H-pyrazol-5-yl]-3-(7-{2-[4-(cyclopentylmethyl)-3-oxopiperazin-1-yl]ethoxy}-2,3-dihydro-1H-inden-4-yl)urea] and `Cc1ccc(-n2nc(C(C)(C)C)cc2NC(=O)Nc2ccc(OCCN3CCN(CC4CCC4)C(=O)C3)c3c2CCC3)cc1` [Compound 22, 1-[3-tert-butyl-1-(4-methylphenyl)-1H-pyrazol-5-yl]-3-(7-{2-[4-(cyclobutylmethyl)-3-oxopiperazin-1-yl]ethoxy}-2,3-dihydro-1H-inden-4-yl)urea] fall in the same range of inhibition at 1 µM: 80 to 100% for the first, 80 to 100% for the second.

`CCCN1CCN(CCOc2ccc(NC(=O)Nc3cc(C(C)(C)C)nn3-c3ccc(C)cc3)c3c2CCC3)CC1=O` [Compound 59, 1-[3-tert-butyl-1-(4-methylphenyl)-1H-pyrazol-5-yl]-3-{7-[2-(3-oxo-4-propylpiperazin-1-yl)ethoxy]-2,3-dihydro-1H-inden-4-yl}urea] and `CC(C)(C)c1cc(NC(=O)Nc2ccc(OCCN3CCN(CC4CC4)C(=O)C3)c3c2CCC3)n(-c2ccc(F)cc2)n1` [Compound 60, 1-[3-tert-butyl-1-(4-fluorophenyl)-1H-pyrazol-5-yl]-3-(7-{2-[4-(cyclopropylmethyl)-3-oxopiperazin-1-yl]ethoxy}-2,3-dihydro-1H-inden-4-yl)urea] fall in the same range of inhibition at 1 µM: 60 to 80% for the first, 60 to 80% for the second.

`Cc1ccc(-n2nc(C(C)(C)C)cc2NC(=O)Nc2ccc(OCCN3CCn4c(nnc4-c4ccccc4OCCO)C3)c3c2CCC3)cc1` [Compound 30, 1-[3-tert-butyl-1-(4-methylphenyl)-1H-pyrazol-5-yl]-3-[7-(2-{3-[2-(2-hydroxyethoxy)phenyl]-5,6-dihydro[1,2,4]triazolo[4,3-a]pyrazin-7(8H)-yl}ethoxy)-2,3-dihydro-1H-inden-4-yl]urea] and `Cc1ccc(-n2nc(C(C)(C)C)cc2NC(=O)Nc2ccc(OCCN3CCn4c(nnc4-c4cccc(Cl)c4O)C3)c3c2CCC3)cc1` [Compound 29, 1-[3-tert-butyl-1-(4-methylphenyl)-1H-pyrazol-5-yl]-3-(7-{2-[3-(3-chloro-2-hydroxyphenyl)-5,6-dihydro[1,2,4]triazolo[4,3-a]pyrazin-7(8H)-yl]ethoxy}-2,3-dihydro-1H-inden-4-yl)urea] fall in the same range of inhibition at 1 µM: 80 to 100% for the first, 80 to 100% for the second.

Compared with `CCOC(=O)c1c(NC(=O)C2CC2)sc2c1CCN(C(=O)COc1ccc(NC(=O)Nc3cc(C(C)(C)C)nn3-c3ccc(C)cc3)c3c1CCC3)C2` [Compound 54, ethyl 6-({[7-({[3-tert-butyl-1-(4-methylphenyl)-1H-pyrazol-5-yl]carbamoyl}amino)-2,3-dihydro-1H-inden-4-yl]oxy}acetyl)-2-[(cyclopropylcarbonyl)amino]-4,5,6,7-tetrahydrothieno[2,3-c]pyridine-3-carboxylate], `Cc1ccc(-n2nc(C(C)(C)C)cc2NC(=O)Nc2ccc(OCCN3CCN(c4ccccc4)C(=O)C3)c3c2CCC3)cc1` [Compound 19, 1-[3-tert-butyl-1-(4-methylphenyl)-1H-pyrazol-5-yl]-3-{7-[2-(3-oxo-4-phenylpiperazin-1-yl)ethoxy]-2,3-dihydro-1H-inden-4-yl}urea] is higher in inhibition at 1 µM: < 20% for the first, 80 to 100% for the second.

`COc1ccccc1-c1nnc2n1CCN(C(=O)COc1ccc(NC(=O)Nc3cc(C(C)(C)C)nn3-c3ccccc3)c3c1CCC3)C2` [Compound 5, 1-(3-tert-butyl-1-phenyl-1H-pyrazol-5-yl)-3-(7-{2-[3-(2-methoxyphenyl)-5,6-dihydro[1,2,4]triazolo[4,3-a]pyrazin-7(8H)-yl]-2-oxoethoxy}-2,3-dihydro-1H-inden-4-yl)urea] and `CSc1ccccc1-c1nnc2n1CCN(C(=O)COc1ccc(NC(=O)Nc3cc(C(C)(C)C)nn3-c3ccccc3)c3c1CCC3)C2` [Compound 7, 1-(3-tert-butyl-1-phenyl-1H-pyrazol-5-yl)-3-[7-(2-{3-[2-(methylsulfanyl)phenyl]-5,6-dihydro[1,2,4]triazolo[4,3-a]pyrazin-7(8H)-yl}-2-oxoethoxy)-2,3-dihydro-1H-inden-4-yl]urea] fall in the same range of inhibition at 1 µM: 80 to 100% for the first, 80 to 100% for the second.

`CCS(=O)(=O)Nc1cc(C(C)(C)C)cc(NC(=O)Nc2ccc(OCCN3CCn4c(nnc4-c4ccc(O)cc4O)C3)c3c2CCC3)c1OC` [Compound 49, N-(5-tert-butyl-3-{[(7-{2-[3-(2,4-dihydroxyphenyl)-5,6-dihydro[1,2,4]triazolo[4,3-a]pyrazin-7(8H)-yl]ethoxy}-2,3-dihydro-1H-inden-4-yl)carbamoyl]amino}-2-methoxyphenyl)ethanesulfonamide] and `CC(C)(C)c1cc(NC(=O)Nc2ccc(OCCN3CCn4c(nnc4-c4ccccc4O)C3)c3c2CCC3)n(-c2ccc(O)c(Cl)c2)n1` [Compound 26, 1-[3-tert-butyl-1-(3-chloro-4-hydroxyphenyl)-1H-pyrazol-5-yl]-3-(7-{2-[3-(2-hydroxyphenyl)-5,6-dihydro[1,2,4]triazolo[4,3-a]pyrazin-7(8H)-yl]ethoxy}-2,3-dihydro-1H-inden-4-yl)urea] fall in the same range of inhibition at 1 µM: 80 to 100% for the first, 80 to 100% for the second.

First: COc1cc(-n2nc(C(C)(C)C)cc2NC(=O)Nc2ccc(OCCN3CCN(CC4CC4)C(=O)C3)c3c2CCC3)cc(OC)c1OC [Compound 70, 1-[3-tert-butyl-1-(3,4,5-trimethoxyphenyl)-1H-pyrazol-5-yl]-3-(7-{2-[4-(cyclopropylmethyl)-3-oxopiperazin-1-yl]ethoxy}-2,3-dihydro-1H-inden-4-yl)urea]
Second: Cc1ccc(-n2nc(C(C)(C)C)cc2NC(=O)Nc2ccc(OCCN3CCn4c(nnc4-c4ccc(O)c(Cl)c4)C3)c3c2CCC3)cc1 [Compound 31, 1-[3-tert-butyl-1-(4-methylphenyl)-1H-pyrazol-5-yl]-3-(7-{2-[3-(3-chloro-4-hydroxyphenyl)-5,6-dihydro[1,2,4]triazolo[4,3-a]pyrazin-7(8H)-yl]ethoxy}-2,3-dihydro-1H-inden-4-yl)urea]
The inhibition at 1 µM of the first is lower: 40 to 60% for the first, 80 to 100% for the second.

`CSc1ccccc1-c1nnc2n1CCN(CCOc1ccc(NC(=O)Nc3cc(C(C)(C)C)nn3-c3ccc(O)c(Cl)c3)c3c1CCC3)C2` [Compound 24, 1-[3-tert-butyl-1-(3-chloro-4-hydroxyphenyl)-1H-pyrazol-5-yl]-3-[7-(2-{3-[2-(methylsulfanyl)phenyl]-5,6-dihydro[1,2,4]triazolo[4,3-a]pyrazin-7(8H)-yl}ethoxy)-2,3-dihydro-1H-inden-4-yl]urea] and `CCCSc1ccccc1-c1nnc2n1CCN(CCOc1ccc(NC(=O)Nc3cc(C(C)(C)C)nn3-c3ccc(O)c(Cl)c3)c3c1CCC3)C2` [Compound 35, 1-[3-tert-butyl-1-(3-chloro-4-hydroxyphenyl)-1H-pyrazol-5-yl]-3-[7-(2-{3-[2-(propylsulfanyl)phenyl]-5,6-dihydro[1,2,4]triazolo[4,3-a]pyrazin-7(8H)-yl}ethoxy)-2,3-dihydro-1H-inden-4-yl]urea] fall in the same range of inhibition at 1 µM: 80 to 100% for the first, 80 to 100% for the second.

`CC(C)(C)c1cc(NC(=O)Nc2ccc(OCC(=O)N3CCn4c(nnc4-c4ccccc4SCCN4CCOCC4)C3)c3c2CCC3)n(-c2ccccc2)n1` [Compound 11, 1-(3-tert-butyl-1-phenyl-1H-pyrazol-5-yl)-3-(7-(2-[3-(2-{[2(morpholin-4-yl)ethyl]sulfanyl}phenyl)-5,6-dihydro[1,2,4]triazolo[4,3-a]pyrazin-7(8H)-yl]-2-oxoethoxy}-2,3-dihydro-1H-inden-4-yl)urea] and `Cc1ccc(-n2nc(C(C)(C)C)cc2NC(=O)Nc2ccc(OCCN3CCn4c(nnc4-c4ccc(O)cc4)C3)c3c2CCC3)cc1` [Compound 34, 1-[3-tert-butyl-1-(4-methylphenyl)-1H-pyrazol-5-yl]-3-(7-{2-[3-(4-hydroxyphenyl)-5,6-dihydro[1,2,4]triazolo[4,3-a]pyrazin-7(8H)-yl]ethoxy}-2,3-dihydro-1H-inden-4-yl)urea] fall in the same range of inhibition at 1 µM: 80 to 100% for the first, 80 to 100% for the second.

First: Cc1ccc(-n2nc(C(C)(C)C)cc2NC(=O)Nc2ccc(OCCN3CCn4c(nnc4-c4cc(Cl)ccc4O)C3)c3c2CCC3)cc1 [Compound 38]
Second: Cc1ccc(-n2nc(C(C)(C)C)cc2NC(=O)Nc2ccc(OCCN3CCn4c(nnc4-c4oc5ccccc5c4C)C3)c3c2CCC3)cc1 [Compound 69, 1-[3-tert-butyl-1-(4-methylphenyl)-1H-pyrazol-5-yl]-3-(7-{2-[3-(3-methyl-1-benzofuran-2-yl)-5,6-dihydro[1,2,4]triazolo[4,3-a]pyrazin-7(8H)-yl]ethoxy}-2,3-dihydro-1H-inden-4-yl)urea]
The inhibition at 1 µM of the first is higher: 80 to 100% for the first, 40 to 60% for the second.
